Activity calls are given as the source filed them. No cut-off for these calls is given here.
Tests used:
HepG2 [1] = experiment: Induction of apoptosis in human HepG2 cells assessed as necrotic cells at 1 uM measured after 24 hrs by Annexin-V/PI staining based flow cytometry assay (reference value: 0.725%); type: functional
HepG2 [2] = experiment: Antiproliferative activity against human HepG2 cells assessed as inhibition of cell proliferation measured after 72 hrs by MTT assay; type: functional, cell-based; conditions: HepG2, 72 h
L02 [3] = experiment: Induction of apoptosis in human L02 cells assessed as early apoptotic cells at 1 uM measured after 24 hrs by Annexin-V/PI staining based flow cytometry assay (reference value: 1.49%); type: cell-based; conditions: l02, 24 h
BEAS-2B = experiment: Antiproliferative activity against human BEAS-2B cells assessed as inhibition of cell proliferation measured after 72 hrs by MTT assay; type: functional, cell-based
HeLa [4] = experiment: Inhibition of human SERCA in human HeLa cells assessed as depletion of SERCA-dependent calcium storage at 1 uM preincubated with TG by FLIPR calcium assay; type: cell-based
[5] = Selectivity index, ratio of IC50 for human L02 cells to IC50 for human HePAD38 cells
HepG2 [6] = experiment: Induction of apoptosis in human HepG2 cells assessed as late apoptotic cells at 1 uM measured after 24 hrs by Annexin-V/PI staining based flow cytometry assay (reference value: 0.016%); type: functional
HeLa [7] = experiment: Inhibition of human SERCA in human HeLa cells assessed as alteration of calcium dynamics at 1 uM preincubated with compound C measured after 2 hrs by FLIPR calcium assay; type: cell-based
[8] = Induction of apoptosis in human L02 cells assessed as viable cells at 1 uM measured after 24 hrs by Annexin-V/PI staining based flow cytometry assay (reference value: 97.5%); type: cell-based; conditions: read-out: Activity
[9] = Antiproliferative activity against human HePAD38 cells assessed as inhibition of cell proliferation measured after 72 hrs by MTT assay; type: functional, cell-based; conditions: HePAD38, 72 h
[10] = Induction of apoptosis in human HePAD38 cells assessed as necrotic cells at 1 uM measured after 24 hrs by Annexin-V/PI staining based flow cytometry assay (reference value: 0.903%); type: functional
A549 = experiment: Antiproliferative activity against human A549 cells assessed as inhibition of cell proliferation measured after 72 hrs by MTT assay; type: functional, cell-based; conditions: A549, 72 h
L02 [11] = experiment: Induction of apoptosis in human L02 cells assessed as necrotic cells at 1 uM measured after 24 hrs by Annexin-V/PI staining based flow cytometry assay (reference value: 0.848%); type: cell-based; conditions: l02, 24 h
[12] = Selectivity index, ratio of IC50 for human L02 cells to IC50 for human HepG2 cells; type: toxicity; conditions: L02 cells versus HepG2 cells, read-out: Ratio IC50
HeLa [13] = experiment: Inhibition of human SERCA in human HeLa cells assessed as alteration of calcium dynamics at 1 uM measured by FLIPR calcium assay; type: cell-based
[14] = Induction of apoptosis in human HePAD38cells assessed as late apoptotic cells at 1 uM measured after 24 hrs by Annexin-V/PI staining based flow cytometry assay (reference value: 0.032%); type: functional, HePAD38
[15] = Induction of apoptosis in human HePAD38 cells assessed as viable cells at 1 uM measured after 24 hrs by Annexin-V/PI staining based flow cytometry assay (reference value: 98.9%); type: functional; conditions: read-out: Activity
HepG2 [16] = experiment: Induction of apoptosis in human HepG2 cells assessed as viable cells at 1 uM measured after 24 hrs by Annexin-V/PI staining based flow cytometry assay (reference value: 99.1%); type: functional; conditions: read-out: Activity
HepG2 [17] = experiment: Induction of apoptosis in human HepG2 cells assessed as early apoptotic cells at 1 uM measured after 24 hrs by Annexin-V/PI staining based flow cytometry assay (reference value: 0.181%); type: functional
L02 [18] = experiment: Cytotoxicity against human L02 cells assessed as cell viability measured after 72 hrs by MTT assay; type: cell-based; conditions: L02, 72 h
[19] = Selectivity index, ratio of IC50 for human CCD 19Lu cells to IC50 for human HePAD38 cells
[20] = Selectivity index, ratio of IC50 for human CCD 19Lu cells to IC50 for human HepG2 cells; type: toxicity; conditions: CCD 19Lu cells versus HepG2 cells, read-out: Ratio IC50
L02 [21] = experiment: Induction of apoptosis in human L02 cells assessed as late apoptotic cells at 1 uM measured after 24 hrs by Annexin-V/PI staining based flow cytometry assay (reference value: 0.133%); type: cell-based; conditions: l02, 24 h
[22] = Induction of apoptosis in human HePAD38 cells assessed as early apoptotic cells at 1 uM measured after 24 hrs by Annexin-V/PI staining based flow cytometry assay (reference value: 0.158%); type: functional

Row | Structure (SMILES) | IC50 (HepG2 [2]) | IC50 (BEAS-2B) | Ratio IC50 [5] | IC50 [9] | IC50 (A549) | selectivity ratio [12] | IC50 (L02 [18]) | Ratio IC50 [19] | selectivity ratio [20] | further results
1 | CC1=C(O)C(=O)C=C2C1=CC=C1[C@@]2(C)CC[C@@]2(C)[C@@H]3C[C@](C)(C(=O)NC(CC(=O)OC(C)(C)C)C(=O)NC(CC(=O)OC(C)(C)C)C(=O)OC(C)(C)C)CC[C@]3(C)CC[C@]12C (stereo not given in full) | 1220 nM | 786 nM | 12.75 | 0.44 µM | 2.75 µM | 4.6 | 5.61 µM | 5 | 1.81 | Activity (HepG2 [1]): 12.4%; Activity (L02 [3]): 3.62%; inhibition (HeLa [4]): Active; Activity (HepG2 [6]): 14.5%; inhibition (HeLa [7]): Active; viability at 24 h, 1 µM [8]: 82.6%; Activity [10]: 5.58%; Activity (L02 [11]): 2.14%; inhibition (HeLa [13]): Active; Activity [14]: 18.5%; viability at 1 µM [15]: 73.6%; viability at 1 µM (HepG2 [16]): 69.7%; Activity (HepG2 [17]): 3.45%; Activity (L02 [21]): 11.7%; Activity [22]: 2.27%
2 | CC1=C(O)C(=O)C=C2C1=CC=C1[C@@]2(C)CC[C@@]2(C)[C@@H]3C[C@](C)(C(=O)NC(CC(=O)OC(C)(C)C)C(=O)NC(CCC(=O)OC(C)(C)C)C(=O)OC(C)(C)C)CC[C@]3(C)CC[C@]12C (stereo not given in full) | 20300 nM | 6870 nM | 2.67 | 17 µM | 37.7 µM | 2.23 | 45.4 µM | 0.61 | 0.51 | –
3 | CC1=C(O)C(=O)C=C2C1=CC=C1[C@@]2(C)CC[C@@]2(C)[C@@H]3C[C@](C)(C(=O)NC(CCC(=O)OC(C)(C)C)C(=O)OC(C)(C)C)CC[C@]3(C)CC[C@]12C (stereo not given in full) | 2520 nM | 620 nM | – | 1.54 µM | 4.2 µM | – | 4.23 µM | – | – | –
4 | CC1=C(O)C(=O)C=C2C1=CC=C1[C@@]2(C)CC[C@@]2(C)[C@@H]3C[C@](C)(C(=O)O)CC[C@]3(C)CC[C@]12C [CELASTROL] | 940 nM | 454 nM | 0.42 | 1.85 µM | 2.83 µM | 0.82 | 0.78 µM | 0.48 | 0.96 | Activity (HepG2 [1]): 1.61%; Activity (L02 [3]): 12.9%; inhibition (HeLa [4]): Active; Activity (HepG2 [6]): 10%; inhibition (HeLa [7]): Active; viability at 24 h, 1 µM [8]: 70.8%; Activity [10]: 9.47%; Activity (L02 [11]): 0.823%; inhibition (HeLa [13]): Active; Activity [14]: 10.5%; viability at 1 µM [15]: 75.3%; viability at 1 µM (HepG2 [16]): 79.6%; Activity (HepG2 [17]): 8.7%; Activity (L02 [21]): 15.5%; Activity [22]: 4.73%
5 | CC1=C(O)C(=O)C=C2C1=CC=C1[C@@]2(C)CC[C@@]2(C)[C@@H]3C[C@](C)(C(=O)NC(CCC(=O)N(CC(=O)OC(C)(C)C)C(=O)OC(C)(C)C)C(=O)OC(C)(C)C)CC[C@]3(C)CC[C@]12C (stereo not given in full) | 1540 nM | 1330 nM | 0.91 | 2.55 µM | 3.4 µM | 1.52 | 2.34 µM | 3.4 | 5.96 | –
6 | CC1=C(O)C(=O)C=C2C1=CC=C1[C@@]2(C)CC[C@@]2(C)[C@@H]3C[C@](C)(C(=O)NC(CCC(=O)NC(CCC(=O)OC(C)(C)C)C(=O)OC(C)(C)C)C(=O)OC(C)(C)C)CC[C@]3(C)CC[C@]12C (stereo not given in full) | 4270 nM | 38600 nM | 2.01 | 4.74 µM | 6.19 µM | 2.23 | 9.55 µM | 12 | 13.4 | Activity (HepG2 [1]): 7.33%; Activity (L02 [3]): 6.2%; inhibition (HeLa [4]): Active; Activity (HepG2 [6]): 11%; inhibition (HeLa [7]): Active; viability at 24 h, 1 µM [8]: 86.7%; Activity [10]: 13.7%; Activity (L02 [11]): 1.64%; inhibition (HeLa [13]): Active; Activity [14]: 4.17%; viability at 1 µM [15]: 80.3%; viability at 1 µM (HepG2 [16]): 80.2%; Activity (HepG2 [17]): 1.55%; Activity (L02 [21]): 5.44%; Activity [22]: 1.85%
7 | CC1=C(O)C(=O)C=C2C1=CC=C1[C@@]2(C)CC[C@@]2(C)[C@@H]3C[C@](C)(C(=O)NCCCNC(=O)[C@@]4(C)CC[C@@]5(C)CC[C@@]6(C)C7=CC=C8C(=CC(=O)C(O)=C8C)[C@@]7(C)CC[C@]6(C)[C@H]5C4)CC[C@]3(C)CC[C@]12C | 1170 nM | 410 nM | – | – | 2.45 µM | – | 1.65 µM | – | – | –
8 | CC1=C(O)C(=O)C=C2C1=CC=C1[C@@]2(C)CC[C@@]2(C)[C@@H]3C[C@](C)(C(=O)NC(CC(=O)NC(CC(=O)OC(C)(C)C)C(=O)OC(C)(C)C)C(=O)OC(C)(C)C)CC[C@]3(C)CC[C@]12C (stereo not given in full) | 7980 nM | 2180 nM | 4.21 | 4.54 µM | 9.85 µM | 2.39 | 19.1 µM | 1.07 | 0.61 | –
9 | CC1=C(O)C(=O)C=C2C1=CC=C1[C@@]2(C)CC[C@@]2(C)[C@@H]3C[C@](C)(C(=O)NCCCNC(=O)OC(C)(C)C)CC[C@]3(C)CC[C@]12C | 1950 nM | 570 nM | – | – | 4.88 µM | – | 3.27 µM | – | – | –
10 | CC1=C(O)C(=O)C=C2C1=CC=C1[C@@]2(C)CC[C@@]2(C)[C@@H]3C[C@](C)(C(=O)NC(CC(=O)OC(C)(C)C)C(=O)OC(C)(C)C)CC[C@]3(C)CC[C@]12C (stereo not given in full) | 3560 nM | 3720 nM | – | 11.8 µM | 4.92 µM | – | 15.4 µM | – | – | –
11 | COC(=O)CCNC(=O)[C@]1(C)CC[C@]2(C)CC[C@]3(C)C4=CC=C5C(=CC(=O)C(O)=C5C)[C@]4(C)CC[C@@]3(C)[C@@H]2C1 | 1040 nM | 320 nM | – | – | 1.91 µM | – | 0.55 µM | – | – | –
12 | CC1=C(O)C(=O)C=C2C1=CC=C1[C@@]2(C)CC[C@@]2(C)[C@@H]3C[C@](C)(C(=O)NC(CC(=O)NC(CCC(=O)OC(C)(C)C)C(=O)OC(C)(C)C)C(=O)OC(C)(C)C)CC[C@]3(C)CC[C@]12C (stereo not given in full) | 8780 nM | 3220 nM | 7.27 | 4.15 µM | 19.3 µM | 3.43 | 30.2 µM | 2.28 | 1.07 | –
